From patent US20070191397A1, “Fungicidal mixtures based on oxime ether derivatives” (priority 2004, published 2007) come the findings set out here.

Test [1] has as its system Erysiphe [syn. Blumeria] graminis form a specialis tritici. The test can be described thus: Activity against mildew of wheat caused by Erysiphe [syn. Blumeria] graminis forma specialis tritici. The test is classed as in vivo. As for the experimental part: (§1) The active compounds, separately or jointly, were prepared as a stock solution with 0.25% by weight of active compound in acetone or DMSO. 1% by weight of the emulsifier Uniperol® EL (wetting agent having emulsifying and dispersing action based on ethoxylated alkylphenols) was added to this solution, and the solution was diluted with water to the desired concentration.
(§2) Evaluation was carried out by determining the infected leaf areas in percent. These percentages were converted into efficacies. The efficacy (E) is calculated as follows using Abbot's formula: E=(1−α/β)·100 α corresponds to the fungicidal infection of the treated plants in % and β corresponds to the fungicidal infection of the untreated (control) plants in %
(§3) An efficacy of 0 means that the infection level of the treated plants corresponds to that of the untreated control plants; an efficacy of 100 means that the treated plants were not infected.
(§4) The expected efficacies of the mixtures of active compounds are determined using Colby's formula [R.S. Colby, Weeds 15, 20-22 (1967)] and compared with the observed efficacies. Colby's formula: E=x+y−x·y/100 E expected efficacy, expressed in % of the untreated control, when using the mixture of the active compounds A and B at the concentrations a and b x efficacy, expressed in % of the untreated control, when using active compound A at the concentration a y efficacy, expressed in % of the untreated control, when using active compound B at the concentration b
Leaves of wheat seedlings of the cultivar “Kanzler” grown in pots, were sprayed to runoff point with an aqueous suspension having the concentration of active compounds stated below. 24 hours after the spray coating had dried on, dusted with spores of mildew of wheat (Erysiphe [syn. Blumeria] graminis form a specialis tritici). The test plants were then placed in a greenhouse at 20-24° C. and 60-90% relative atmospheric humidity. After 7 days, the extent of the mildew development was determined visually in % infection of the entire leaf area.

Test [2] deals with Puccinia recondita. The experiment in a line: Curative action against brown rust of wheat caused by Puccinia recondita. Format: in vivo. The following applies: wheat cultivar Kanzler, 7 days. Here is the method:
as §1, §2, §3, §4
Leaves of wheat seedlings of the cultivar “Kanzler”, grown in pots, were dusted with spores of brown rust (Puccinia recondita). The pots were then placed in the chamber with high atmospheric humidity (90-95%), at 20-22° C., for 24 hours. During this time the spores germinated and the germinal tubes penetrated into the leaf tissue. The next day, the infected plants were sprayed to runoff point with an aqueous suspension having the concentration of active compounds stated below. After the spray coating had dried on, the test plants were cultivated in a greenhouse at 20-22° C. and 65-70% relative atmospheric humidity for 7 days. Thereafter, the extent of the rust fungus development on the leaves was determined.

Regarding `O=C(Cc1ccccc1)N/C(=N\OCC1CC1)c1c(C(F)(F)F)ccc(F)c1F` [II.1], the “Efficacy in % of the untreated control” value in test [1] (0.25 ppm) is 70%.

As to `O=C(Cc1ccccc1)N/C(=N\OCC1CC1)c1c(OC(F)F)ccc(F)c1F` [II.14], the “Efficacy in % of the untreated control” value in test [2] (0.06 ppm in the spray liquor), in test [2] (0.25 ppm in the spray liquor) and in test [2] (1 ppm in the spray liquor) was 0% throughout.

In the case of `CC1CCN(c2c(-c3c(F)cc(F)cc3F)c(Cl)nc3ncnn23)CC1` [I, 5-chloro-7-(4-methylpiperidin-1-yl)-6-(2,4,6-trifluoro-phenyl)-[1,2,4]triazolo[1,5-a]pyrimidine], the “Efficacy in % of the untreated control” value is 0% in test [1] (0.25 ppm in the spray liquor, wheat cultivar Kanzler, sprayed 24 h before inoculation, 7 days); 9% in test [1] (1 ppm in the spray liquor, wheat cultivar Kanzler, sprayed 24 h before inoculation, 7 days); 60% in test [1] (4 ppm in the spray liquor, wheat cultivar Kanzler, sprayed 24 h before inoculation, 7 days); 0% in test [2] (1 ppm in the spray liquor); 89% in test [2] (4 ppm in the spray liquor).
